Results: US9044403B2, “Sporicidal hand sanitizing lotion” (Medivators Inc., priority 2008, dated 2015)

Experiment: Fragrance screen for chemical compatibility with a PAA solution
Type: physicochemical
Procedure: A number of fragrances were tested with a PAA solution to screen for chemical compatibility. […] Additionally, “Blackberry Sage Tea” fragrance in combination with the vinegar-like order from the PAA in the sample was not appealing to volunteers who agreed to sample the sample lotion formulation.

Time within which the fragrance degrades PAA, 3 to 5 days:
CC/C=C\CCO [cis-3-hexen-1-ol]
CC(=O)OCCC(C)CCC=C(C)C (stereo not drawn) [citronellyl acetate]
CC(=O)OC/C=C(/C)CCC=C(C)C [neryl acetate]
